Here are results for twelve molecules from ChEMBL document CHEMBL1201862, “PubChem BioAssay data set” (2004).

SMILES strings stand for the structures.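 Where inhibition never reached the appropriate level, the endpoint shown equals the highest concentration tested. Otherwise, values were interpolated linearly from a five-concentration, 48-hour dose response in 96-well plates. GI50 = concentration required for 50% inhibition of growth.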 Active and inactive are the calls of the source. No stated cut-off is given here; in the data, active = GI50 up to about 1.1 µM and inactive = higher. Some results are limits rather than exact numbers.

Test systems include COLO 205; CCRF-CEM; U-251; TK-10; IGROV-1; MDA-MB-231; SR; KM12; SF-539; M14; CAKI-1; HOP-92; RPMI-8226; HT-29; OVCAR-3; LOX IMVI; NCI-H226; SK-MEL-28; A498.
Holding throughout (assay): NCI tumour cell line growth inhibition, 48 h

For `Cc1cc2c(cc1C(=O)c1ccc(N)cc1)OCO2`, the GI50 in the test on COLO 205 was 16 µM (inactive); with CCRF-CEM, 39.1 µM (inactive); in the test on U-251, 24.9 µM (inactive); in the test with TK-10, 28.2 µM (inactive); with IGROV-1, 33.5 µM (inactive); in the test with MDA-MB-231, 34.1 µM (inactive). Besides, the GI50 in the test with SR was 5.08 µM (inactive); with KM12 it was 21.4 µM (inactive); with SF-539 it was 27.2 µM (inactive); in the test on M14, 29.4 µM (inactive); in the test on CAKI-1 it was 24.5 µM (inactive); in the test with HOP-92 it was 33.2 µM (inactive). Also, the GI50 with RPMI-8226 is 36.3 µM (inactive); in the test on HT-29, 22.9 µM (inactive); with OVCAR-3, 0.347 µM (active).

As for `O=C(NN=C1NCCN1)c1ccco1`, the GI50 with COLO 205, with CCRF-CEM, with U-251, in the test with TK-10, with IGROV-1 and in the test with LOX IMVI was > 100 µM (inactive) throughout. Also, the GI50 was > 100 µM (inactive) in the test on MDA-MB-231; > 100 µM (inactive) with SR; > 100 µM (inactive) in the test with KM12; > 100 µM (inactive) in the test on SF-539; 62.4 µM (inactive) in the test on NCI-H226; > 100 µM (inactive) with M14. For the same molecule, the GI50 in the test with HOP-92, in the test on SK-MEL-28, in the test on RPMI-8226, with HT-29 and in the test with OVCAR-3 was > 100 µM (inactive) throughout.

In the case of `CCN(CC)CCC(=O)c1ccc(Oc2ccccc2)cc1`, the GI50 was 17.7 µM (inactive) with COLO 205; 22.1 µM (inactive) in the test with CCRF-CEM; 17.9 µM (inactive) with U-251; 14.2 µM (inactive) with TK-10; 17.1 µM (inactive) in the test on IGROV-1; 16.8 µM (inactive) in the test with LOX IMVI. Further, the GI50 in the test with MDA-MB-231 is 20.7 µM (inactive); in the test with SR it was 39.4 µM (inactive); with KM12, 13.1 µM (inactive); in the test with SF-539 it was 18.6 µM (inactive); in the test on NCI-H226 it was > 100 µM (inactive); with M14 it was 38.1 µM (inactive). Besides, the GI50 in the test on CAKI-1 was 16.7 µM (inactive); with HOP-92, 15.8 µM (inactive); with SK-MEL-28, 17.5 µM (inactive); in the test with RPMI-8226, 5.79 µM (inactive); in the test with HT-29 it was 19.1 µM (inactive); with OVCAR-3, 19.7 µM (inactive).

As to `CC(=O)OCCCCn1nncc1Cn1ccc(=O)n(Cc2cnnn2CCCCOC(C)=O)c1=O`, the GI50 is > 100 µM (inactive) with COLO 205; 0.385 µM (active) in the test with CCRF-CEM; > 100 µM (inactive) with U-251; > 100 µM (inactive) in the test with TK-10; > 100 µM (inactive) in the test with IGROV-1; > 100 µM (inactive) in the test on LOX IMVI. Besides, the GI50 in the test on MDA-MB-231, with KM12, in the test with SF-539, in the test on NCI-H226, in the test on M14 and with CAKI-1 was > 100 µM (inactive) each time. Moreover, the GI50 in the test on HOP-92, in the test on SK-MEL-28, in the test on RPMI-8226, in the test with A498 and with OVCAR-3 was > 100 µM (inactive) throughout.

Turning to `Oc1ccc(Cc2cc(Cc3ccc(O)cc3)cc(Cc3ccc(O)cc3)c2)cc1`, the GI50 in the test with U-251, in the test on TK-10, in the test with IGROV-1, in the test on LOX IMVI, with MDA-MB-231 and in the test with SR was > 50 µM (inactive) throughout. Besides, the GI50 with KM12, in the test with SF-539, in the test with NCI-H226, in the test on M14, with SK-MEL-28 and in the test on RPMI-8226 was > 50 µM (inactive) throughout. For the same molecule, the GI50 with A498, in the test with HT-29 and in the test on OVCAR-3 was > 50 µM (inactive) throughout.

On to `CN1CC=C(C#CC(C)(C)O)CC1`, for which the GI50 in the test with COLO 205, in the test with CCRF-CEM, with U-251, in the test on TK-10, with IGROV-1 and with LOX IMVI was > 37.5 µM (inactive) throughout. The GI50 with MDA-MB-231, in the test with SR, in the test with KM12, with NCI-H226, in the test on M14 and with CAKI-1 was > 37.5 µM (inactive) throughout. Moreover, the GI50 in the test with SK-MEL-28, in the test on RPMI-8226, in the test with HT-29 and in the test with OVCAR-3 was > 37.5 µM (inactive) each time.

`COC(=O)Nc1nc2cc(NS(=O)(=O)c3cccs3)ccc2[nH]1`: the GI50 with COLO 205 was 20.7 µM (inactive); in the test on CCRF-CEM, 34.8 µM (inactive); with U-251, 30.4 µM (inactive); in the test on TK-10, 25.9 µM (inactive); in the test on IGROV-1, 10.9 µM (inactive); in the test on LOX IMVI, 36.3 µM (inactive). The GI50 is 31 µM (inactive) in the test with MDA-MB-231; 13.7 µM (inactive) with KM12; 29.2 µM (inactive) with SF-539; 32.2 µM (inactive) in the test on NCI-H226; 21.5 µM (inactive) in the test on M14; 30.4 µM (inactive) with CAKI-1. The GI50 with HOP-92 was 16.3 µM (inactive); in the test with SK-MEL-28, 19.3 µM (inactive); with RPMI-8226 it was 35.1 µM (inactive); with A498, 28 µM (inactive); in the test with HT-29 it was 23 µM (inactive); in the test with OVCAR-3, 14.6 µM (inactive).

Regarding `CN(C)CCCOCCn1c2c(c3ccccc31)CCCC2`, the GI50 in the test on COLO 205 was 16.6 µM (inactive); in the test on CCRF-CEM, 12.9 µM (inactive); in the test with U-251, 17.9 µM (inactive); with TK-10 it was 18.4 µM (inactive); in the test with IGROV-1 it was 15.8 µM (inactive); with LOX IMVI it was 16.1 µM (inactive). Moreover, the GI50 was 13 µM (inactive) in the test on MDA-MB-231; 18.1 µM (inactive) in the test with SR; 21.2 µM (inactive) with KM12; 18.7 µM (inactive) in the test with SF-539; 29.6 µM (inactive) in the test with NCI-H226; 15.7 µM (inactive) in the test with M14. For the same molecule, the GI50 in the test on CAKI-1 is 15.2 µM (inactive); with HOP-92 it was 13.2 µM (inactive); with SK-MEL-28, 16.6 µM (inactive); in the test with RPMI-8226, 15.9 µM (inactive); in the test with HT-29, 15 µM (inactive); with OVCAR-3, 18.2 µM (inactive).

As for `O=c1[nH]nc(Cc2ccccc2)n1/N=C/c1ccc([N+](=O)[O-])o1`, the GI50 was 1.89 µM (inactive) in the test with COLO 205; 1.16 µM (inactive) with CCRF-CEM; 2.87 µM (inactive) with U-251; 4.36 µM (inactive) in the test with TK-10; 2.67 µM (inactive) in the test on IGROV-1; 0.659 µM (active) in the test on LOX IMVI. The GI50 in the test on MDA-MB-231 was 3.38 µM (inactive); with KM12 it was 2.15 µM (inactive); with SF-539, 2.11 µM (inactive); in the test with NCI-H226, 12.5 µM (inactive); in the test with M14, 2.24 µM (inactive); with CAKI-1, 3.11 µM (inactive). In addition, the GI50 was 3.03 µM (inactive) in the test on HOP-92; 2.2 µM (inactive) with SK-MEL-28; 2.63 µM (inactive) with RPMI-8226; 7.41 µM (inactive) with A498; 1.68 µM (inactive) with HT-29; 0.292 µM (active) with OVCAR-3.

In the case of `Cc1cc(N(CCC#N)CCC#N)ccc1C(/N=N\c1ccc([N+](=O)[O-])cc1)=N\NC(=O)c1cc(Cl)ccc1O`, the GI50 was 25 µM (inactive) with COLO 205; 25.1 µM (inactive) with CCRF-CEM; 46.1 µM (inactive) in the test with U-251; 46.1 µM (inactive) in the test with TK-10; 24.2 µM (inactive) in the test on IGROV-1; 30.3 µM (inactive) in the test on MDA-MB-231. In addition, the GI50 with SR was 24.3 µM (inactive); with KM12, 27.7 µM (inactive); in the test with SF-539, 40.4 µM (inactive); in the test with NCI-H226 it was 25.5 µM (inactive); in the test on M14, 42 µM (inactive); with CAKI-1, 40.7 µM (inactive). The GI50 in the test on RPMI-8226 is > 100 µM (inactive); in the test on A498, 26.7 µM (inactive); in the test on HT-29, 29.4 µM (inactive); in the test with OVCAR-3 it was 14.2 µM (inactive).

In the case of `Cc1ccc(C2=CC(=O)OC(C[P+](c3ccccc3)(c3ccccc3)c3ccccc3)(c3ccccc3)O2)cc1` (stereo not drawn), the GI50 in the test on COLO 205 is 14.3 µM (inactive); in the test with CCRF-CEM, 16.8 µM (inactive); in the test on U-251, 17.9 µM (inactive); with TK-10, 20.1 µM (inactive); in the test with IGROV-1 it was 13.7 µM (inactive); with MDA-MB-231, 28.5 µM (inactive). In addition, the GI50 with SR is 15.6 µM (inactive); in the test with KM12, 17.7 µM (inactive); in the test with SF-539, 18.1 µM (inactive); with NCI-H226, 27.1 µM (inactive); in the test on M14 it was 17 µM (inactive); in the test with CAKI-1, 15.4 µM (inactive). Also, the GI50 in the test on SK-MEL-28 was 19 µM (inactive); with RPMI-8226, 17.5 µM (inactive); in the test on A498, 15.1 µM (inactive); in the test on HT-29, 14.7 µM (inactive); with OVCAR-3, 16.4 µM (inactive).

As to `COc1cc2c(cc1O)CC[n+]1cc3c(OC)c(OC)ccc3cc1-2`, the GI50 in the test with COLO 205 is 72.4 µM (inactive); with CCRF-CEM it was > 100 µM (inactive); in the test on U-251, 35.6 µM (inactive); with TK-10 it was > 100 µM (inactive); with IGROV-1, > 100 µM (inactive); in the test on LOX IMVI, > 100 µM (inactive). Also, the GI50 in the test on MDA-MB-231 was > 100 µM (inactive); with KM12, 76.7 µM (inactive); in the test with SF-539 it was > 100 µM (inactive); in the test on NCI-H226, > 100 µM (inactive); with M14, > 100 µM (inactive); in the test on CAKI-1, > 100 µM (inactive). In addition, the GI50 was 87.7 µM (inactive) in the test on HOP-92; > 100 µM (inactive) with SK-MEL-28; 81.8 µM (inactive) in the test on RPMI-8226; > 100 µM (inactive) in the test on A498; > 100 µM (inactive) in the test on HT-29; 59.4 µM (inactive) with OVCAR-3.
